Assay results from US20110003878A1, “NOVEL DERIVATIVES OF PHTHALIMIDE AS HISTONE DEACETYLASE INHIBITORS” (UNIVERSIDAD DE GRANADA, priority 2006, published 2011).
pIC50: −log10 of the molar value.

System: HDAC (HeLa nuclear extract, rich in HDAC activity)
Assay: HDAC AK-501 colorimetric inhibition kit (Color de Lys substrate, HeLa nuclear extract)
Assay type: biochemical, human
Conditions: Color de Lys substrate 0.2 mM final, 20 minutes at 37° C., reading at 405 nm, 5 concentrations (0.1-1.0 μM)
Description: The process of the assay was carried out in two steps. In the first step, the Color de Lys® substrate, containing an acetylated lysine group, was incubated with a sample of HeLa (human cervical cancer cell line) nuclear extract, rich in HDAC activity. […] There is a linear correlation between the absorption and the deacetylation of lysine within instrumental limits. The operating procedure was the following: • 1. […] The Hela extract was added, except to the enzyme-free control. • 3. The plate and the Color de Lys® substrate were thermostatted at 37° C. • 4. The reactions were started adding the 0.4 mM substrate (final concentration of the substrate 0.2 mM) in each well and it was stirred. • 5. A reaction time of 20 minutes at 37° C. was allowed. • 6. The Color de Lys® developer, prepared approximately 30 minutes before its use, was added (the developer was used diluted 20 times with an amount of TSA resulting in a final concentration of 1 μM in the assay). • It was allowed to react for 15 minutes at 37° C. • 7.

pIC50 | Compound
6.46 | O=C(CCCCCN1C(=O)c2ccc([N+](=O)[O-])cc2C1=O)NO [MTC-127, 6-(5-nitro-1,3-dioxo-isoindol-2-yl)-N-hydroxyhexanamide]
6.74 | Cc1ccc2c(c1)C(=O)N(CCCCCC(=O)NO)C2=O [MTC-141, 6-(5-methyl-1,3-dioxoisoindol-2-yl)-N-hydroxyhexanamide]
